Results published in publication PMC4268243 (Nuclear medicine and biology, 2014).

Assays:
[1] = tested on: DU145 tumor xenograft; assay: Biodistribution in DU145 tumor-bearing SCID mice; format: in vivo; settings: listed as (S)-[^18F]FAMP 1
[2] = tested on: rat orthotopic brain tumor model; settings: rat orthotopic brain tumor model, 60 min; cited from earlier work
[3] = tested on: A549 tumor xenograft; assay: Biodistribution in A549 tumor-bearing SCID mice; format: in vivo; settings: listed as (S)-[^18F]FAMP 1

What does the source list for CC(N)(C[18F])C(=O)O [(S)-[^18F]1] [2-amino-3-[^18F]fluoro-2-methylpropanoic acid]?
uptake in blood ([1]; 15 min post injection): 5.1±1.1 %ID/g; uptake in bone ([1]; 15 min post injection): 2.4±1.1 %ID/g; uptake in brain ([1]; 15 min post injection): 0.6±0.1 %ID/g; uptake in heart ([1]; 15 min post injection): 3.2±1.2 %ID/g; uptake in kidney ([1]; 15 min post injection): 36±5.1 %ID/g; uptake in liver ([1]; 15 min post injection): 3.4±0.6 %ID/g; uptake in lung ([1]; 15 min post injection): 6.5±1.5 %ID/g; uptake in muscle ([1]; 15 min post injection): 4.0±0.8 %ID/g; uptake in pancreas ([1]; 15 min post injection): 55±8.8 %ID/g; uptake in spleen ([1]; 15 min post injection): 7.9±2.3 %ID/g; uptake in tumor ([1]; 15 min post injection): 3.2±2.5 %ID/g; uptake in blood ([1]; 30 min post injection): 2.9±1.1 %ID/g; uptake in bone ([1]; 30 min post injection): 2.2±0.5 %ID/g; uptake in brain ([1]; 30 min post injection): 0.5±0.2 %ID/g; uptake in heart ([1]; 30 min post injection): 3.2±1.3 %ID/g; uptake in kidney ([1]; 30 min post injection): 21±6.2 %ID/g; uptake in liver ([1]; 30 min post injection): 2.9±0.9 %ID/g; uptake in lung ([1]; 30 min post injection): 5.0±2.6 %ID/g; uptake in muscle ([1]; 30 min post injection): 2.9±0.2 %ID/g; uptake in pancreas ([1]; 30 min post injection): 37±13 %ID/g; uptake in spleen ([1]; 30 min post injection): 6.6±1.1 %ID/g; uptake in tumor ([1]; 30 min post injection): 1.8±0.4 %ID/g; uptake in blood ([1]; 60 min post injection): 2.4±0.04 %ID/g; uptake in bone ([1]; 60 min post injection): 2.1±0.2 %ID/g; uptake in brain ([1]; 60 min post injection): 0.6±0.1 %ID/g; uptake in heart ([1]; 60 min post injection): 3.5±0.3 %ID/g; uptake in kidney ([1]; 60 min post injection): 17±0.6 %ID/g; uptake in liver ([1]; 60 min post injection): 3.3±0.5 %ID/g; uptake in lung ([1]; 60 min post injection): 3.4±0.8 %ID/g; uptake in muscle ([1]; 60 min post injection): 2.5±0.3 %ID/g; uptake in pancreas ([1]; 60 min post injection): 36±3.1 %ID/g; uptake in spleen ([1]; 60 min post injection): 9.2±5.1 %ID/g; uptake in tumor ([1]; 60 min post injection): 3.4±1.7 %ID/g; uptake in blood ([1]; 120 min post injection): 1.8±0.4 %ID/g; uptake in bone ([1]; 120 min post injection): 1.6±0.4 %ID/g; uptake in brain ([1]; 120 min post injection): 0.6±0.1 %ID/g; uptake in heart ([1]; 120 min post injection): 3.0±0.7 %ID/g; uptake in kidney ([1]; 120 min post injection): 13±1.7 %ID/g; uptake in liver ([1]; 120 min post injection): 2.8±0.7 %ID/g; uptake in lung ([1]; 120 min post injection): 3.3±1.1 %ID/g; uptake in muscle ([1]; 120 min post injection): 1.7±0.5 %ID/g; uptake in pancreas ([1]; 120 min post injection): 28±7.4 %ID/g; uptake in spleen ([1]; 120 min post injection): 5.3±1.8 %ID/g; uptake in tumor ([1]; 120 min post injection): 3.5±0.7 %ID/g; brain uptake [2]: 0.06±0.01 %ID/g; uptake in blood ([3]; 15 min post injection): 3.9±0.6 %ID/g; uptake in bone ([3]; 15 min post injection): 2.6±0.8 %ID/g; uptake in brain ([3]; 15 min post injection): 0.5±0.1 %ID/g; uptake in heart ([3]; 15 min post injection): 3.2±0.7 %ID/g; uptake in kidney ([3]; 15 min post injection): 29±5.7 %ID/g; uptake in liver ([3]; 15 min post injection): 3.7±0.5 %ID/g; uptake in lung ([3]; 15 min post injection): 5.5±2.0 %ID/g; uptake in muscle ([3]; 15 min post injection): 3.3±0.7 %ID/g; uptake in pancreas ([3]; 15 min post injection): 42±8.4 %ID/g; uptake in spleen ([3]; 15 min post injection): 9.0±3.0 %ID/g; uptake in tumor ([3]; 15 min post injection): 6.7±1.7 %ID/g; uptake in blood ([3]; 30 min post injection): 3.1±0.6 %ID/g; uptake in bone ([3]; 30 min post injection): 2.5±0.6 %ID/g; uptake in brain ([3]; 30 min post injection): 0.6±0.1 %ID/g; uptake in heart ([3]; 30 min post injection): 3.3±0.4 %ID/g; uptake in kidney ([3]; 30 min post injection): 21±6.9 %ID/g; uptake in liver ([3]; 30 min post injection): 3.8±0.6 %ID/g; uptake in lung ([3]; 30 min post injection): 4.3±1.7 %ID/g; uptake in muscle ([3]; 30 min post injection): 3.0±0.8 %ID/g; uptake in pancreas ([3]; 30 min post injection): 39±8.2 %ID/g; uptake in spleen ([3]; 30 min post injection): 8.4±1.7 %ID/g; uptake in tumor ([3]; 30 min post injection): 7.9±1.0 %ID/g; uptake in blood ([3]; 60 min post injection): 2.3±0.1 %ID/g; uptake in bone ([3]; 60 min post injection): 2.7±0.6 %ID/g; uptake in brain ([3]; 60 min post injection): 0.8±0.1 %ID/g; uptake in heart ([3]; 60 min post injection): 3.0±0.4 %ID/g
